Assay results reported in patent US7288258B2, “Polyepitopic protein fragments of the E6 and E7 proteins of HPV, their production and their use particularly in vaccination” (Peptide Immune Ligands, priority 1999, dated 2007).

Key:
Assay in all cases: association of peptide with HLA molecules and stability of the complex
Conditions in all cases: stable complex: peptide remains bound for at least about 3 hours at 37° C.
[1] = tested on: HLA molecules of the A11 type; format: binding, human
From the text: (§1) The different epitopes of the polyepitopic region of the predetermined protein, and delimiting the epitopic protein fragments, are preferably selected from the peptides; • binding to a predetermined molecule of MCH, particularly to a molecule of the predetermined HLA type, and this from concentrations of about 10^−6 M to about 10^−10 M in peptide for concentrations of about 10^−7 M of HLA molecules, particularly under the conditions described hereafter, • and forming a stable complex with said MCH molecule, namely particularly a complex in which said peptide remains bound to said molecule for at least about 3 hours at 37° C.
(§2) By way of illustration, the above-mentioned epitopes of the invention are selected from among the peptides adapted: • on the one hand of associating with the molecules of MCH, particularly by using the following method: • incubation (particularly for about 2 hours at 25° C., then about 15 hours at 4° C.) of the peptide in the presence of MCH molecules, from the lysis of human or animal cells, or purified particularly by affinity chromatography from human or animal cell lines, • trapping complexes formed during the preceding step on a solid support covered with a first antibody, particularly monoclonal, recognizing specifically the CMH molecules in their configuration dependent on their connection to said peptide, • addition to the preceding solid support of a second marked antibody, particularly by coupling to a radioactive, enzymatic or fluorescent marker, said marked antibody recognizing specifically either the long chains of MCH in their configuration dependent on their connection to the peptide, or the short chain of MCH or the β2-microglobulin binding specifically to the different long chains of the MCH in their above-mentioned configuration, • detection, after rinsing of the solid support, of the possible presence of the second marked antibody remaining fixed on the solid support, signifying an association effect between the molecules of MCH and the peptide studied, • and, on the other hand, forming a complex with said MCH molecules, whose stability can be evaluated by the use of a method of following according to time the connection established between the peptide and the MCH molecules, this method being preferably carried out according to a protocol identical to the preceding method, but in which the incubation step of the peptide in the presence of MCH molecules on the solid support covered with said first antibody, is preceded by a preliminary step of eliminating the free peptide adapted that may be present in the reaction medium, particularly by washing the solid support, said incubation step being carried out (preferably at a temperature of 37° C.) for variable times of 1 hours, 3 hours, 5 hours, 24 hours and 48 hours.
(§3) As mentioned above, the epitopes of the invention should be recognized by the T cells in association with the MCH molecules and associate with these latter, particularly in the framework of the practice of the recognition test described above. This association can be weak (detectable at concentrations of peptide analogs of the order of 10^−4 to 10^−5 M), intermediate (detectable at concentrations of peptide analogs of the order of 10^−6 to 10^−7 M), or strong (detectable at concentrations of peptide analogs of the order of 10^−8 to 10^−9 M). The peptides associated with the MCH molecules in the scope of the present invention are preferably adapted to bond during at least about 3 hours, to said MCH molecules.

[2] = target: T1, HLA molecules of the A3 type (Homo sapiens, UniProt P04439); format: binding
T1 construct: endogenous in cells
T1 sequence (P61769 21-119): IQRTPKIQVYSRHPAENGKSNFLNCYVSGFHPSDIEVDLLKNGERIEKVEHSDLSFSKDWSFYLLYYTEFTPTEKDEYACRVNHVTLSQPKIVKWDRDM
T1 sequence (P04439 25-365): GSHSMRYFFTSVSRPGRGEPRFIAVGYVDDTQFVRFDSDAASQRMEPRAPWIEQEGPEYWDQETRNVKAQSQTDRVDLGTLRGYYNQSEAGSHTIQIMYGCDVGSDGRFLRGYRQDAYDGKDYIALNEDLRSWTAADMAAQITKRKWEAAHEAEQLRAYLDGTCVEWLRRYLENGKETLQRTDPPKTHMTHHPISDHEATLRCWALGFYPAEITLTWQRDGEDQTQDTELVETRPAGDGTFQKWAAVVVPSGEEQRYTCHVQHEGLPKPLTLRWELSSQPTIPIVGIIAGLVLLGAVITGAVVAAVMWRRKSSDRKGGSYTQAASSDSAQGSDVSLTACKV
From the text: as §1, §2, §3

[3] = tested on: HLA molecules of the B8 type; format: binding, human
From the text: as §1, §2, §3

[4] = tested on: HLA molecules of the A24 type; format: binding, human
From the text: as §1, §2, §3

[5] = tested on: HLA molecules of the B44 type; format: binding, human
From the text: as §1, §2, §3

[6] = tested on: HLA molecules of the B35 type; format: binding, human
From the text: as §1, §2, §3

[7] = tested on: HLA molecules of the A2 type; format: binding, human
From the text: as §1, §2, §3

[8] = tested on: HLA molecules of the B27 type; format: binding, human
From the text: as §1, §2, §3

[9] = target: T2, HLA molecules of the B7 type (Homo sapiens, UniProt P01889); format: binding
T2 construct: endogenous in cells
T2 sequence (P01889 25-362): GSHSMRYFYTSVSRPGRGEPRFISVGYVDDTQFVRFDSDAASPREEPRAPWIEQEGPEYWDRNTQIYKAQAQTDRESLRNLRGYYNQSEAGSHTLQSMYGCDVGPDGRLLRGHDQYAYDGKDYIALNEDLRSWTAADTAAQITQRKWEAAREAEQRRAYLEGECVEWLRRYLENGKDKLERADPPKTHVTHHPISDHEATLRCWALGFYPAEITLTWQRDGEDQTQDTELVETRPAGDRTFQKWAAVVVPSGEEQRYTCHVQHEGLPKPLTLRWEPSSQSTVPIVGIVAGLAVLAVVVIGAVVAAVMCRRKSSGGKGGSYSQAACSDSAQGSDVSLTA
T2 sequence (P61769 21-119, further chain): as the sequence (P61769 21-119) above
From the text: as §1, §2, §3

[10] = tested on: HLA molecules of the A29 type; format: binding, human
From the text: as §1, §2, §3

In the case of NIVTFCCK (Human Papillomavirus), the “binding stably to HLA molecules of the A11 type” value [1] is reported as “binding stably” and the “binding stably to HLA molecules of the A3 type” value (“binding stably … of the A3 type” below) [2] is reported as “binding stably”.
For NTFRHSVVV, the “binding stably to HLA molecules of the B8 type” value [3] was “binding stably”.
With NYMCNSSCM (listed as Homo sapiens) the “binding stably to HLA molecules of the A24 type” value (“binding stably … of the A24 type” for short) [4] was “binding stably”.
For PEEKQRHL (Human Papillomavirus), the “binding stably to HLA molecules of the B44 type” value (shortened to “binding stably … of the B44 type”) [5] was “binding stably”.
For PPGTRVRAM (listed as Homo sapiens), the “binding stably to HLA molecules of the B35 type” value (“binding stably … of the B35 type” below) [6] was “binding stably”.
With QLCTELQTTI (Human Papillomavirus) the “binding stably to HLA molecules of the A2 type” value (from here on “binding stably … of the A2 type”) [7] was “binding stably”.
QRFHNIRGRW (Human Papillomavirus) was tested, and the “binding stably to HLA molecules of the B27 type” value (from here on “binding stably … of the B27 type”) [8] was “binding stably”.
For RFHNIRGRW (Human Papillomavirus), the “binding stably … of the A24 type” value [4] was “binding stably”.
RPILTIITL was tested, and the “binding stably … of the B35 type” value [6] was “binding stably” and the “binding stably to HLA molecules of the B7 type” value [9] was “binding stably”.
For RPRKLPQL (Human Papillomavirus), the “binding stably … of the B35 type” value [6] was “binding stably” and the “binding stably to HLA molecules of the B7 type” value [9] was “binding stably”.
With RREVYDFAFR (Human Papillomavirus) the “binding stably … of the B27 type” value [8] was “binding stably”.
For RRPILTIITL (listed as Homo sapiens), the “binding stably … of the B27 type” value [8] was “binding stably”.
RVEGNLRVEY (listed as Homo sapiens) was tested, and the “binding stably … of the A2 type” value [7] was “binding stably”.
RVRAMAIYK (listed as Homo sapiens) was tested, and the “binding stably … of the A3 type” value [2] was “binding stably”.
SDCTTIHYNY (listed as Homo sapiens) was tested, and the “binding stably … of the B44 type” value [5] was “binding stably”.
For SEYRHYCY (Human Papillomavirus), the “binding stably to HLA molecules of the A29 type” value (shortened to “binding stably … of the A29 type”) [10] was “binding stably” and the “binding stably … of the B44 type” value [5] was “binding stably”.
With STPPPGTRV (listed as Homo sapiens) the “binding stably … of the A2 type” value [7] was “binding stably”.
With SYGFRLGFL (listed as Homo sapiens) the “binding stably … of the A24 type” value [4] was “binding stably”.
TELQTTIHDI (Human Papillomavirus) was tested, and the “binding stably … of the A29 type” value [10] was “binding stably” and the “binding stably … of the B44 type” value [5] was “binding stably”.
For TFRHSVVV (listed as Homo sapiens), the “binding stably … of the A24 type” value [4] was “binding stably”.
TIHDIILRCV was tested, and the “binding stably … of the A2 type” value [7] was “binding stably”.
TLEQQYNK (Human Papillomavirus) was tested, and the “binding stably to HLA molecules of the A11 type” value [1] was “binding stably” and the “binding stably … of the A3 type” value [2] was “binding stably”.
In the case of TLGIVCPI (Human Papillomavirus), the “binding stably … of the A2 type” value [7] is reported as “binding stably”.
TPTLHEYML (Human Papillomavirus) was tested, and the “binding stably … of the B35 type” value [6] was “binding stably”.
In the case of TRVRAMAIYK (listed as Homo sapiens), the “binding stably … of the B27 type” value [8] is reported as “binding stably”.
For TYQGSYGFRL, the “binding stably … of the A24 type” value [4] was “binding stably”.
With TYSPALNKMF the “binding stably … of the A24 type” value [4] was “binding stably”.
With VEGNLRVEY (listed as Homo sapiens) the “binding stably … of the B44 type” value [5] was “binding stably”.
For VEYLDDRNTF (listed as Homo sapiens), the “binding stably … of the B44 type” value [5] was “binding stably”.
For VRVCACPGR (listed as Homo sapiens), the “binding stably … of the B27 type” value [8] was “binding stably”.
VYDFAFRDL (Human Papillomavirus) was tested, and the “binding stably … of the A24 type” value [4] was “binding stably”.
YDFAFRDL (Human Papillomavirus) was tested, and the “binding stably … of the A29 type” value [10] was “binding stably” and the “binding stably … of the B44 type” value [5] was “binding stably”.
For YMLDLQPETT, the “binding stably … of the A2 type” value [7] was “binding stably”.
